Columns and labels:
mTORC2 = target: T1, mTORC2 (Homo sapiens, UniProt P42345+P62942); assay: Inhibition assay for mTORC2: phosphorylation of pAkt at Ser473, AlphaLISA SureFire in PC3 cells; type: cell-based; details: PC3 cells, 24 hours treatment, analogs substituted at C40 and C16 (C16 diastereomer mixtures not isolated); for IC50: read-out: pIC50 mTORC2 (converted)
T1 construct: endogenous in cells; host or cells: PC3 cells (human prostate adenocarcinoma)
Experimental: The IC50s of the inhibition of mTORC1 and mTORC2 were determined in vitro by determining the phosphorylation of pS6K at position Thr389 (mTORC1 inhibition) and pAkt at Ser473 (mTORC2 inhibition). In vitro studies were performed with AiphaLISA® technology using PC3 cells (Prostate Adenocarcinoma; Human (Homo sapiens)). The cells were seeded in 96 well plates and were treated for 24 hours with the different compounds. […] All analysis were performed using GraphPad Prism 7.0 (GraphPad Software, San Diego, USA). […]

mTORC1 = target: T2, mTORC1 (Homo sapiens, UniProt P42345+P62942); assay: Inhibition assay for mTORC1: phosphorylation of pS6K at Thr389, AlphaLISA SureFire in PC3 cells; type: cell-based; details: PC3 cells, 24 hours treatment, pS6K Thr389, analogs substituted at C40 and C16 (C16 diastereomer mixtures not isolated); for IC50: read-out: pIC50 mTORC1 (converted)
T2 construct: endogenous in cells; host or cells: PC3 cells (human prostate adenocarcinoma)
Experimental: The IC50s of the inhibition of mTORC1 and mTORC2 were determined in vitro by determining the phosphorylation of pS6K at position Thr389 (mTORC1 inhibition) and pAkt at Ser473 (mTORC2 inhibition). In vitro studies were performed with AiphaLISA® technology using PC3 cells (Prostate Adenocarcinoma; Human (Homo sapiens)). The cells were seeded in 96 well plates and were treated for 24 hours with the different compounds. […] All analysis were performed using GraphPad Prism 7.0 (GraphPad Software, San Diego, USA).
Tables 5-7 include PIC50 values for mTORC1 of selected compounds; with compounds having an PIC50 for mTORC1 of >9.5 as A, 8.5 to 9.5 as B, and less than 8.5 as C.

Row | IC50 (mTORC2) [nM] | IC50 (mTORC1) [nM] | pIC50 mTORC2 (mTORC2) | pIC50 mTORC1 (mTORC1) | Molecule
1 | < 1000 | < 0.316 | – | – | CO[C@@H]1C[C@H](C[C@@H](C)[C@@H]2CC(=O)[C@H](C)/C=C(\C)[C@@H](O)[C@@H](OC)C(=O)[C@H](C)C[C@H](C)/C=C/C=C/C=C(\C)C(OCCc3ccccc3)C[C@@H]3CC[C@@H](C)[C@@](O)(O3)C(=O)C(=O)N3CCCCC3C(=O)O2)CC[C@H]1OC(=O)N(CCO)CCO (stereo partly drawn) [Compound 112, [(1R,2R,4S)-4-[(2R)-2-[(1R,9S,12S,15R,16E,18R,19R,21R,23S,24E,26E,28E,32S,35R)-1,18-dihydroxy-19-methoxy-15,17,21,23,29,35-hexamethyl-2,3,10,14,20-pentaoxo-30-(2-phenylethoxy)-11,36-dioxa-4-azatricyclo[30.3.1.0^4,9]hexatriaconta-16,24,26,28-tetraen-12-yl]propyl]-2-methoxy-cyclohexyl] N,N-bis(2-hydroxyethyl)carbamate]
2 | 1000 to 10000 | 0.316 to 3.16 | – | – | COCCOC1C[C@@H]2CC[C@@H](C)[C@@](O)(O2)C(=O)C(=O)N2CCCCC2C(=O)O[C@H]([C@H](C)C[C@@H]2CC[C@@H](OCCN3C[C@@H](C)O[C@@H](C)C3)[C@H](OC)C2)CC(=O)[C@H](C)/C=C(\C)[C@@H](O)[C@@H](OC)C(=O)[C@H](C)C[C@H](C)/C=C/C=C/C=C/1C (stereo partly shown) [Compound 81]
3 | < 1000 | < 0.316 | – | – | CO[C@@H]1C[C@H](C[C@@H](C)[C@@H]2CC(=O)[C@H](C)/C=C(\C)[C@@H](O)[C@@H](OC)C(=O)[C@H](C)C[C@H](C)/C=C/C=C/C=C(\C)C(OCc3ccccc3)C[C@@H]3CC[C@@H](C)[C@@](O)(O3)C(=O)C(=O)N3CCCCC3C(=O)O2)CC[C@H]1OC(=O)NCCN1CCOCC1 (stereo partly shown) [Compound 115]
4 | < 1000 | < 0.316 | – | – | CO[C@@H]1C[C@H](C[C@@H](C)[C@@H]2CC(=O)[C@H](C)/C=C(\C)[C@@H](O)[C@@H](OC)C(=O)[C@H](C)C[C@H](C)/C=C/C=C/C=C(\C)C(OCCc3ccccc3)C[C@@H]3CC[C@@H](C)[C@@](O)(O3)C(=O)C(=O)N3CCCCC3C(=O)O2)CC[C@H]1OCCCN1CCCCC1 (stereo partly shown) [Compound 101]
5 | 1000 to 10000 | 0.316 to 3.16 | – | – | CO[C@@H]1C[C@H](C[C@@H](C)[C@@H]2CC(=O)[C@H](C)/C=C(\C)[C@@H](O)[C@@H](OC)C(=O)[C@H](C)C[C@H](C)/C=C/C=C/C=C(\C)C(OCC(C)(C)O)C[C@@H]3CC[C@@H](C)[C@@](O)(O3)C(=O)C(=O)N3CCCCC3C(=O)O2)CC[C@H]1OCCCO (stereo partly shown) [Compound 98]
6 | – | – | A (PIC50 for mTORC2 of <5 as A) | B (8.5 to 9.5 as B) | (1R,9S,12SR,15R,16E,18R,19R,21R,23S,24E,26E,28E,32SR,35R)-1,18-dihydroxy-30-(3-hydroxypropoxy)-19-methoxy-12-[(1R)-2-[(1S,3R,4R)-3-methoxy-4-(3-phenylpropoxy)cyclohexyl]-1-methyl-ethyl]-15,17,21,23,29,35-hexamethyl-11,36-dioxa-4-azatricyclo[30.3.1.0^4,9]hexatriaconta-16,24,26,28-tetraene-2,3,10,14,20-pentone [Compound 67]
7 | 1000 to 10000 | < 0.316 | – | – | CO[C@@H]1C[C@H](C[C@@H](C)[C@@H]2CC(=O)[C@H](C)/C=C(\C)[C@@H](O)[C@@H](OC)C(=O)[C@H](C)C[C@H](C)/C=C/C=C/C=C(\C)C(OCCc3ccccc3)C[C@@H]3CC[C@@H](C)[C@@](O)(O3)C(=O)C(=O)N3CCCCC3C(=O)O2)CC[C@H]1OCCO (stereo partly shown) [Compound 99]
8 | < 1000 | < 0.316 | – | – | CO[C@@H]1C[C@H](C[C@@H](C)[C@@H]2CC(=O)[C@H](C)/C=C(\C)[C@@H](O)[C@@H](OC)C(=O)[C@H](C)C[C@H](C)/C=C/C=C/C=C(\C)C(OCCc3ccccc3)C[C@@H]3CC[C@@H](C)[C@@](O)(O3)C(=O)C(=O)N3CCCCC3C(=O)O2)CC[C@H]1OC(=O)N(C)CCN(C)C (stereo partly shown) [Compound 109]
9 | > 10000 | < 0.316 | – | – | COCCCO[C@@H]1CC[C@@H](C[C@@H](C)[C@@H]2CC(=O)[C@H](C)/C=C(\C)[C@@H](O)[C@@H](OC)C(=O)[C@H](C)C[C@H](C)/C=C/C=C/C=C(\C)C(OCCO)C[C@@H]3CC[C@@H](C)[C@@](O)(O3)C(=O)C(=O)N3CCCCC3C(=O)O2)C[C@H]1OC (stereo partly shown) [Compound 3]
10 | > 10000 | 0.316 to 3.16 | – | – | CO[C@@H]1C[C@H](C[C@@H](C)[C@@H]2CC(=O)[C@H](C)/C=C(\C)[C@@H](O)[C@@H](OC)C(=O)[C@H](C)C[C@H](C)/C=C/C=C/C=C(\C)C(OCCO)C[C@@H]3CC[C@@H](C)[C@@](O)(O3)C(=O)C(=O)N3CCCCC3C(=O)O2)CC[C@H]1OC(=O)NCCN1CCCCC1 (stereo partly shown) [Compound 72]
11 | > 10000 | 0.316 to 3.16 | – | – | CO[C@@H]1C[C@H](C[C@@H](C)[C@@H]2CC(=O)[C@H](C)/C=C(\C)[C@@H](O)[C@@H](OC)C(=O)[C@H](C)C[C@H](C)/C=C/C=C/C=C(\C)C(OCCO)C[C@@H]3CC[C@@H](C)[C@@](O)(O3)C(=O)C(=O)N3CCCCC3C(=O)O2)CC[C@H]1OC(=O)N(C)CCCN(C)C (stereo partly shown) [Compound 77]
12 | > 10000 | < 0.316 | – | – | CO[C@@H]1CC[C@@H](C[C@@H](C)[C@@H]2CC(=O)[C@H](C)/C=C(\C)[C@@H](O)[C@@H](OC)C(=O)[C@H](C)C[C@H](C)/C=C/C=C/C=C(\C)C(OCCCO)C[C@@H]3CC[C@@H](C)[C@@](O)(O3)C(=O)C(=O)N3CCCCC3C(=O)O2)C[C@H]1OC (stereo partly shown) [Compound 19]
13 | 1000 to 10000 | 0.316 to 3.16 | – | – | CO[C@@H]1C[C@H](C[C@@H](C)[C@@H]2CC(=O)[C@H](C)/C=C(\C)[C@@H](O)[C@@H](OC)C(=O)[C@H](C)C[C@H](C)/C=C/C=C/C=C(\C)C(OCC3CCOCC3)C[C@@H]3CC[C@@H](C)[C@@](O)(O3)C(=O)C(=O)N3CCCCC3C(=O)O2)CC[C@H]1OCCO (stereo partly shown) [Compound 86]
14 | 1000 to 10000 | < 0.316 | – | – | COCCCCOC1C[C@@H]2CC[C@@H](C)[C@@](O)(O2)C(=O)C(=O)N2CCCCC2C(=O)O[C@H]([C@H](C)C[C@@H]2CC[C@@H](OCCCN3CCOCC3)[C@H](OC)C2)CC(=O)[C@H](C)/C=C(\C)[C@@H](O)[C@@H](OC)C(=O)[C@H](C)C[C@H](C)/C=C/C=C/C=C/1C (stereo partly shown) [Compound 65]
15 | > 10000 | 0.316 to 3.16 | – | – | CO[C@@H]1C[C@H](C[C@@H](C)[C@@H]2CC(=O)[C@H](C)/C=C(\C)[C@@H](O)[C@@H](OC)C(=O)[C@H](C)C[C@H](C)/C=C/C=C/C=C(\C)C(OCCO)C[C@@H]3CC[C@@H](C)[C@@](O)(O3)C(=O)C(=O)N3CCCCC3C(=O)O2)CC[C@H]1OC(=O)NCCO (stereo partly shown) [Compound 64]
16 | > 10000 | 0.316 to 3.16 | – | – | CO[C@@H]1C[C@H](C[C@@H](C)[C@@H]2CC(=O)[C@H](C)/C=C(\C)[C@@H](O)[C@@H](OC)C(=O)[C@H](C)C[C@H](C)/C=C/C=C/C=C(\C)C(OCCOCCO)C[C@@H]3CC[C@@H](C)[C@@](O)(O3)C(=O)C(=O)N3CCCCC3C(=O)O2)CC[C@H]1OCCCO (stereo partly shown) [Compound 53]
17 | < 1000 | < 0.316 | – | – | CO[C@@H]1C[C@H](C[C@@H](C)[C@@H]2CC(=O)[C@H](C)/C=C(\C)[C@@H](O)[C@@H](OC)C(=O)[C@H](C)C[C@H](C)/C=C/C=C/C=C(\C)C(OCCc3ccccc3)C[C@@H]3CC[C@@H](C)[C@@](O)(O3)C(=O)C(=O)N3CCCCC3C(=O)O2)CC[C@H]1OC(=O)NCCO (stereo partly drawn) [Compound 111, [(1R,2R,4S)-4-[(2R)-2-[(1R,9S,12S,15R,16E,18R,19R,21R,23S,24E,26E,28E,32S,35R)-1,18-dihydroxy-19-methoxy-15,17,21,23,29,35-hexamethyl-2,3,10,14,20-pentaoxo-30-(2-phenylethoxy)-11,36-dioxa-4-azatricyclo[30.3.1.0^4,9]hexatriaconta-16,24,26,28-tetraen-12-yl]propyl]-2-methoxy-cyclohexyl] N-(2-hydroxyethyl)carbamate]
18 | > 10000 | < 0.316 | – | – | COCCOC1C[C@@H]2CC[C@@H](C)[C@@](O)(O2)C(=O)C(=O)N2CCCCC2C(=O)O[C@H]([C@H](C)C[C@@H]2CC[C@@H](OC)[C@H](OC)C2)CC(=O)[C@H](C)/C=C(\C)[C@@H](O)[C@@H](OC)C(=O)[C@H](C)C[C@H](C)/C=C/C=C/C=C/1C (stereo partly shown) [Compound 11]
19 | < 1000 | < 0.316 | – | – | CO[C@@H]1C[C@H](C[C@@H](C)[C@@H]2CC(=O)[C@H](C)/C=C(\C)[C@@H](O)[C@@H](OC)C(=O)[C@H](C)C[C@H](C)/C=C/C=C/C=C(\C)C(OCc3ccccc3)C[C@@H]3CC[C@@H](C)[C@@](O)(O3)C(=O)C(=O)N3CCCCC3C(=O)O2)CC[C@H]1OC(=O)NCCc1ccccc1 (stereo partly shown) [Compound 117]
20 | > 10000 | < 0.316 | – | – | COCCCO[C@@H]1CC[C@@H](C[C@@H](C)[C@@H]2CC(=O)[C@H](C)/C=C(\C)[C@@H](O)[C@@H](OC)C(=O)[C@H](C)C[C@H](C)/C=C/C=C/C=C(\C)C(OCCOCCOC)C[C@@H]3CC[C@@H](C)[C@@](O)(O3)C(=O)C(=O)N3CCCCC3C(=O)O2)C[C@H]1OC (stereo partly shown) [Compound 23]

From patent US12565505B2, “mTORC modulators and uses thereof” (Aeovian Pharmaceuticals, Inc., priority 2019, dated 2026)
